Measured values from patent US20230101768A1, “METHOD TO TREAT MANGANESE TOXICITY AND MANGANESE-INDUCED PA[…] HUMANS” (priority 2021, published 2023).

How the values were obtained:
C57BL/6J mice = details: C57BL/6J mice, open field 6-15 min interval, ~30 mg manganese/kg daily in drinking water, 4 weeks
Experimental: To assay for the protective effect of roxadustat, animals were exposed to roxadustat or vehicle with or without manganese in drinking water from ˜4 weeks of age. Treatment lasted for 4 weeks from initiation. Roxadustat (Selleckchem) was prepared as a 50 mg/ml stock solution in DMSO, then diluted to 1 mg/ml in sterile phosphate buffered saline (PBS), and delivered by daily i.p. injection at 10 mg/kg. Vehicle was 2% DMSO in PBS. For this experiment, drinking water manganese levels were adjusted to 0.138 mg absolute manganese/ml so that animals received ˜30 mg absolute manganese/kg daily. A higher level of manganese was used because exposure was initiated after weaning, which was necessary because daily i.p. injections for roxadustat delivery were not possible in the pre-weaning period.
Open-field assays for neurobehavior assessment. Open-field analyses were performed as described in a recent publication (51).

SLC30A10 promoter = type: cell-based, human
Source text: A luciferase reporter plasmid containing the proximal promoter of human SLC30A10 has been previously described and was a gift of Dr. Ruth Valentine (100). The promoter fragment corresponding to bases −679 to +211 relative to the start of transcription was sub-cloned into the Xho1 and SpeI sites of pRRLSIN.cPPTLuciferase.WPRE vector (Addgene, #69251), which is a luciferase vector for lentivirus infections. Deletion mutants were generated using the loop-out modification of the QuikChange protocol.
Lentiviral infections. Stable cells were generated by lentivirus infection essentially as described by us previously (49, 98). Briefly, lentivirus was produced in HEK293T cells by co-transfecting transfer plasmids described above with plasmids coding for a third generation packing system that is routinely used (pRSV-Rev, pRRE, and pCMV-VSVG) (49, 98). Viral supernatants were collected 40-48 h post-transfection. HepG2 cells for infection were plated in a 60 mm dish 24 h before infection so that cells reached a confluence of 30% on the day of infection. Collected viral supernatants were filtered through a 0.45-μm polyvinylidene difluoride filter, and cells were incubated with a 1:2 dilution of viral supernatant containing 5 μg/mL Polybrene (Santa Cruz). […]

VEGF = type: cell-based, human; details: HepG2 cells, 250 μM manganese for 4 h; expression without manganese normalized to 1; mean±SE, N=4
Experimental: Cells were treated with 0 or 250 μM manganese for 4 h, and gene expression was analyzed by qRT-PCR. For each transcript, expression without manganese treatment was normalized to 1. N=4. Data are mean±SE.
Cell culture. HepG2 cells were grown in Eagle's modified essential medium (MEM; Corning) with 10% fetal bovine serum (Atlanta Biologicals), 100 IU/ml penicillin (Corning), and 100 μg/ml streptomycin (Corning). 293T cells were maintained in Dulbecco's modified essential medium/F12 (Thermo) supplemented with 10% fetal bovine serum, penicillin (100 IU/ml), and streptomycin (100 μg/ml). Human primary hepatocytes were purchased from XenoTech (catalog #HPCH10+) and cultured according to protocols provided by the supplier.
manganese and drug treatments in cell culture. Cells were treated with indicated levels of manganese as manganeseCl2.4H2O (Fisher). Vehicle for manganese treatment was water. Prolyl hydroxylase inhibitors roxadustat (Caymen), vadadustat, and molidustat (both APE-Bio); the HIFα inhibitor LW6 (Selleckchem); the proteasomal inhibitor MG132 (Sigma); and the transcription inhibitor actinomycin D (Sigma) were dissolved in DMSO. […] Vehicle treatment for all drugs was DMSO.
Quantitative RT-PCR assays. RNA extraction from HepG2 cells and mouse tissue, reverse transcription to cDNA, and qRT-PCR analyses were performed as described by us previously (47, 50). For analyses of mouse brain samples, a part of the midbrain, including the basal ganglia, was used. Transcript levels were quantified using the ΔΔCT method with 18S (in mice) or TBP (in HepG2 cells) as the internal control, also as described by us previously (47, 50).

SLC30A10 = details: HepG2 cells, 250 μM manganese, immunoblot
Experimental: Immunoblots. HepG2 cells were cultured in 35 mm dishes, treated with or without manganese, MG132 and/or prolyl hydroxylase inhibitors, and scrapped using 200 μl of RIPA buffer (50 mM Tris-HCl, pH7.4; 150 mM NaCl; 1Mm EDTA; 1% Triton; 0.25% sodium deoxycholate; protease inhibitors cocktail (Thermo A32953)). Whole-cell lysates were prepared by adding loading buffer (50 mM Tris-HCl, pH 7.4; 2% sodium dodecyl sulfate; 10% glycerol, 0.1 M dithiothreitol; 0.01% (weight/volume) bromophenol blue) and boiling the samples for 5 min. Equal volumes of samples were loaded per lane. Further processing was as described by us previously (47). Images were quantified using ImageQuant TL software (GE).
Antibodies and chemicals. The inventors used the following commercial primary antibodies in this study: rabbit polyclonal anti-HIF1α (Abcam, Ab2185), rabbit polyclonal anti-HIF2α (Novus, NB100-122), rabbit monoclonal anti-HIF1α proline 564 (Cell signaling, 3434S), and mouse monoclonal anti-tubulin (Sigma, T5168). […] Sources of chemicals not provided elsewhere were Thermo Fisher Scientific or Sigma-Aldrich.

O.O.O.O.[Cl][Mn][Cl] [manganese, manganeseCl2.4H2O]
Vertical (rearing) movement versus vehicle-treated controls, manganese-only (C57BL/6J mice): reduced | Luciferase activity after manganese (SLC30A10 promoter): increased | Relative expression after manganese, VEGF transcript (VEGF): 2.41 ± 0.29 | SLC30A10 protein levels after manganese (SLC30A10): increased
